Literature values as cited in patent EP4578441A1, “TREATMENT OF LOCALIZED PAIN” (PlantTec Medical GmbH, priority 2023, dated 2025).
Read-outs that look alike come from different tables or passages of the source.

Columns and labels:
[1] = free base
[2] = system: volunteers; details: i.v. infusions

| Compound | water solubility [1] | CNS toxicity threshold, free plasma ropivacaine concentration ([2]; free plasma concentration) | CNS toxicity threshold, free plasma ropivacaine concentration, maximum ([2]; maximum) | CNS toxicity threshold, free plasma ropivacaine concentration, minimum ([2]; minimum) | safety of local administration (dose of 400 mg) | safety of local administration (dose of 800 mg) |
| --- | --- | --- | --- | --- | --- | --- |
| CCCN1CCCC[C@H]1C(=O)Nc1c(C)cccc1C [ropivacaine free base, (S)-1-Propyl-2',6'-dimethyl-2-piperidylcarboxyanilide] | weak |  |  |  |  |  |
| CCCN1CCCC[C@H]1C(=O)Nc1c(C)cccc1C [ropivacaine, (S)-1-Propyl-2',6'-dimethyl-2-piperidylcarboxyanilide] |  | 0.60 µg/mL | 0.85 µg/mL | 0.34 µg/mL | safe | safe |
